In patent publication US7700613B2, “Use of 7-t-butoxyiminomethylcamptothecin for the preparation of a medicament for the treatment of uterine neoplasms” (Sigma-Tau Farmaceutiche Riunite, S.p.A., priority 2004, dated 2010):

Experiments:
[1] = test system: uterine cancers, both of the cervix and the endometrium; assay: European phase I trial of gimatecan as single therapeutic agent in patients with advanced cancers; format: in vivo
Method: In the light of this preclinical evidence, a European phase I trial was conducted in which gimatecan was administered as a single therapeutic agent with different administration regimens. The patients studied were affected by advanced cancers for which curative or standard therapy was no longer indicated. Although the aim of the study was to assess the tolerability of the treatment with gimatecan, in the course of this clinical trial gimatecan produced a number of lasting objective clinical responses. Particularly worthy of mention are the responses of a number of patients with uterine cancers, both of the cervix and the endometrium, including forms which had received substantial previous treatments and presented metastatic disease.
These responses were subjected to two independent assessments by experts not taking part in the clinical trial, who confirmed the observations.

[2] = preclinical trials in vivo
Text: Gimatecan is a new anticancer compound that has shown a high therapeutic index in preclinical trials in vivo. Moreover, gimatecan is characterised by an anticancer activity that is maintained with different administration regimens, both intermittent and prolonged.

CC[C@@]1(O)C(=O)OCc2c1cc1n(c2=O)Cc2c-1nc1ccccc1c2/C=N/OC(C)(C)C [gimatecan, 7-terbutoxyiminomethylcamptothecin]
objective clinical response ([1]; patients with uterine cancers (cervix and endometrium), incl. substantially pretreated and metastatic disease, assessed by computed tomography, confirmed by two independent assessments): partial responses
reduction of the tumour lesion or lesions ([1]; responding patients with uterine cancers, diagnostic imaging such as computed tomography, definition of partial response): more than 30%
therapeutic index [2]: high
